{
  "source": "patent US12667567B2",
  "about": "“Method of preventing blast-induced loss of cochlear and vestibular hair cells and auditory spiral ganglion neurons” (Therapeutic Vision, Inc., priority 2024, dated 2026)",
  "key": {"[1]": {"tested_on": "vestibular hair cells in the saccule", "assay": "Vestibular hair cell density in macula of the saccule after blast", "format": "in vivo, rat", "protocol": "(§1) Blast wave exposure. All rats were exposed to 6 blasts presented once every 5 minutes using equipment and procedures similar to those previously described. (See Manohar, S., et al., Blast-induced hearing loss suppresses hippocampal neurogenesis and disrupts long term spatial memory. Hear Res, 2020. 395: p. 108022; Stachowiak, M. K., et al., Neurogenesis and Oligodendrogenesis in a Mouse Model of Blast-Induced Traumatic Brain Injury. Neurology and Neurobiology, 2020: p. 1-14; and Newman, A. J., et al., Low-cost blast wave generator for studies of hearing loss and brain injury: blast wave effects in closed spaces. J Neurosci Methods, 2015. 242: p. 82-92.) Each rat was anesthetized with an intraperitoneal injection of ketamine (50 mg/kg) and xylazine (6 mg/kg) and stable anesthesia was maintained with supplementary half-doses of anesthetics as needed to maintain a stable anesthetic state. Each anesthetized rat was placed in a wire-mesh cage 5 cm with the snout of the rat facing the front of the blast tube opening. The average blast peak pressure level was 186 dB peak SPL (±0.8 dB, SEM, ~39.9 kPa). The intensity was selected based on our prior study in which we found no evidence of tympanic membrane or ossicular damage in rats exposed at 188 dB pSPL (Newman, A. J. et al.), consistent with an earlier report. (Roberto, M., R. P. Hamernik, and G. A. Turrentine, Damage of the auditory system associated with acute blast trauma. Ann Otol Rhinol Laryngol Suppl, 1989. 140: p. 23-34)\n(§2) Experimental groups. The rats were divided into four groups (n=6/group): (1) Blast alone (B), (2) Blast plus earplugs (BEP), (3) Blast plus HK-2 (BHK-2) and (4) Blast plus earplugs plus HK-2 (BEPHK-2). All rats had free access to water and standard lab chow except for the BHK-2 and BEPHK-2 groups that also received HK-2 as noted below.\n(§3) HK-2 synthesis and administration. HK-2 was synthesized and evaluated for purity (>99%) as described previously. (Kawada, H. and P. F. Kador, Orally Bioavailable Metal Chelators and Radical Scavengers: Multifunctional Antioxidants for the Coadjutant Treatment of Neurodegenerative Diseases. J Med Chem, 2015. 58(22): p. 8796-805; U.S. Pat. No. 8,877,766 B2) Rats in the BHK-2 group and BEPHK-2 group were fed the same standard laboratory rat chow as the other two groups, however, the chow had been treated with HK-2 as described previously. (Chen, G. D., et al.; Manohar, S., et al., Combined antioxidants and anti-inflammatory therapies fail to attenuate the early and late phases of cyclodextrin-induced cochlear damage and hearing loss. Hear Res, 2022. 414: p. 108409.) HK-2 treated food was administered to rats starting 7-days prior to the blast wave exposure and continuing for 30-days following exposure. Based on the rat's daily food consumption, measured every 2 days together with body weight, the average oral consumption of HK-2 was ~50 mg/kg/day. (Id.)\n(§4) Tissue preparation. Approximately 60-days after the blast wave exposure, the rats from all four groups were deeply anesthetized with ketamine (50 mg/kg, i.p.) and xylazine (6 mg/kg, i.p.) and decapitated. The temporal bones were quickly removed. Under a dissection microscope, openings were made in the cochlear apex, round window, and the oval window. […]"}, "[2]": {"tested_on": "vestibular hair cells in the utricle", "assay": "Vestibular hair cell density in macula of the utricle after blast", "format": "in vivo, rat", "protocol": "as §1, §2\n(§5) HK-2 synthesis and administration. HK-2 was synthesized and evaluated for purity (>99%) as described previously. (Kawada, H. and P. F. Kador, Orally Bioavailable Metal Chelators and Radical Scavengers: Multifunctional Antioxidants for the Coadjutant Treatment of Neurodegenerative Diseases. J Med Chem, 2015. 58(22): p. 8796-805; U.S. Pat. No. 8,877,766 B2) Rats in the BHK-2 group and BEPHK-2 group were fed the same standard laboratory rat chow as the other two groups, however, the chow had been treated with HK-2 as described previously. […] Based on the rat's daily food consumption, measured every 2 days together with body weight, the average oral consumption of HK-2 was ~50 mg/kg/day. […]"}, "[3]": {"tested_on": "noise-induced hearing loss and outer hair cell loss", "settings": "95 dB SPL octave band noise, 8 h/d for 21 days; HK-2 before, during and after the exposure; cited from earlier work"}, "outer hair cells (OHC)": {"tested_on": "outer hair cells (OHC)", "assay": "Blast-induced outer hair cell loss, cochleogram", "format": "in vivo, rat", "protocol": "as §1, §2, §3, §4"}, "[4]": {"tested_on": "vestibular hair cells in the crista of the ampulla", "assay": "Vestibular hair cell density in crista ampullae of semicircular canals after blast", "format": "in vivo, rat", "protocol": "as §1, with “The intensity was selected based on our prior study in which we found no evidence of tympanic membrane or ossicular damage in rats exposed at 188 dB pSPL (Newman, A. J. et al.), consistent with an earlier report. (Roberto, M., R. P. Hamernik, and G. A. Turrentine, Damage of the auditory system associated with acute blast trauma. Ann Otol Rhinol Laryngol Suppl, 1989. 140: p. 23-34)” left out\nHK-2 synthesis and administration. HK-2 was synthesized and evaluated for purity (>99%) as described previously. […] Based on the rat's daily food consumption, measured every 2 days together with body weight, the average oral consumption of HK-2 was ~50 mg/kg/day. […]"}, "[5]": {"tested_on": "auditory nerve fibers (ANF)", "assay": "Blast-induced loss of auditory nerve fibers in habenula perforata", "format": "in vivo, rat", "settings": "for mean number of ANF/habenula perforata: middle of basal turn, ~25 kHz", "protocol": "as §1, §2, §5"}, "inner hair cells (IHC)": {"tested_on": "inner hair cells (IHC)", "assay": "Blast-induced inner hair cell loss, cochleogram", "format": "in vivo, rat", "protocol": "as §1, §2, §3, §4"}, "[6]": {"tested_on": "spiral ganglion neurons (SGN)", "assay": "Blast-induced loss of spiral ganglion neurons in Rosenthal's canal", "format": "in vivo, rat", "settings": "for mean number of SGN per section: middle of basal turn, ~25 kHz", "protocol": "as §1, §2, §5"}, "[7]": {"settings": "BEPHK-2 group (earplugs plus HK-2)"}, "[8]": {"settings": "BHK-2 group, no blast-induced loss in this region"}, "[9]": {"settings": "HK-2 oral 50 mg/kg/d, 60 d post-exposure, 50 mg/kg/day"}, "[10]": {"settings": "BHK-2 group, 6 blasts 186 dB peak SPL, HK-2 oral 50 mg/kg/d from 7 d before to 30 d after blast, 60 d post-exposure, 50 mg/kg/day"}},
  "note": "“And” between values parts separate entries of the source, which are not always exact repeats. Equal values may be shown once. “Also recorded” adds a separate entry of the source.",
  "data": [
    {"molecule": "O=C1CCC(=O)N1c1ncc(O)cn1", "note": "[HK-2, 1-(5-hydroxypyrimidin-2-yl) pyrrolidine-2,5-dione]", "values": [
      {"measurement": "mean hair cell density, marginal region of the saccule", "setting": "[1]; [7]", "value": "123.0 /0.0108 mm^2"},
      {"measurement": "mean vestibular hair cell density, striola of the saccule", "setting": "[1]; [7]", "value": 112.0, "unit": "hair cell/0.0108 mm^2"},
      {"measurement": "mean vestibular hair cell density, striola of the saccule", "setting": "[1]; BHK-2 group, B group 71.83", "value": 102.7, "unit": "hair cell/0.0108 mm^2"},
      {"measurement": "mean hair cell density, marginal region of the saccule", "setting": "[1]; [8]", "value": "122.2 /0.0108 mm^2"},
      {"measurement": "protection against blast-induced saccule (striola) hair cell loss (in words)", "setting": "[1]; [9]", "value": "completely prevented; also recorded: restored hair cell densities to normal levels; also recorded: significant protection"},
      {"measurement": "mean hair cell density, marginal region of the macula of the utricle", "setting": "[2]; [7]", "value": "122.8 /0.0108 mm^2"},
      {"measurement": "mean hair cell density, striola region of the macula of the utricle", "setting": "[2]; [7]", "value": "111.3 /0.0108 mm^2"},
      {"measurement": "mean hair cell density, marginal region of the macula of the utricle", "setting": "[2]; [8]", "value": "122.7 /0.0108 mm^2"},
      {"measurement": "mean hair cell density, striola region of the macula of the utricle", "setting": "[2]; [8]", "value": "111.0 /0.0108 mm^2"},
      {"measurement": "hearing loss and hair cell loss after noise exposure (in words)", "setting": "[3]", "value": "significantly reduced in a dose-dependent manner"},
      {"measurement": "OHC loss less than in BEP group", "setting": "outer hair cells (OHC); BEPHK-2 group (earplugs plus HK-2), extreme base", "value": "about 10%"},
      {"measurement": "reduction of total OHC loss compared to B group", "setting": "outer hair cells (OHC); [10]", "value": "67% and ~ 67%"},
      {"measurement": "mean OHC loss", "setting": "outer hair cells (OHC); BHK-2 group, 10% location (distance from apex)", "value": 10, "unit": "%"},
      {"measurement": "mean OHC loss", "setting": "outer hair cells (OHC); BHK-2 group, 70% location (distance from apex)", "value": "~ 39%"},
      {"measurement": "mean OHC loss", "setting": "outer hair cells (OHC); BHK-2 group, high-frequency base of the cochlea", "value": "~ 76%"},
      {"measurement": "mean hair cell density, crista of the ampulla of the three semicircular canals", "setting": "[4]; [7]", "value": "122.8 /0.0108 mm^2"},
      {"measurement": "mean hair cell density, crista of the ampulla of the three semicircular canals", "setting": "[4]; [8]", "value": "121.8 /0.0108 mm^2"},
      {"measurement": "mean number of ANF/habenula perforata", "setting": "[5]; [7]", "value": 82.8, "unit": "ANF/habenula perforata"},
      {"measurement": "mean number of ANF/habenula perforata", "setting": "[5]; BHK-2 group, B group ~9.2", "value": 84.2, "unit": "ANF/habenula perforata"},
      {"measurement": "protection against blast-induced ANF loss (in words)", "setting": "[5]; [9]", "value": "completely prevented; also recorded: complete protection"},
      {"measurement": "increase of ANF versus blast alone", "setting": "[5]; HK-2 treatment, 25 kHz region", "value": "~ 8 fold"},
      {"measurement": "IHC loss", "setting": "inner hair cells (IHC); BEPHK-2 group (earplugs plus HK-2; range stated jointly with BEP group), base of the cochlea", "value": "14-19%"},
      {"measurement": "reduction of total IHC loss compared to B group", "setting": "inner hair cells (IHC); [10]", "value": "57% and ~ 57.3% and ~ 57%"},
      {"measurement": "mean IHC loss", "setting": "inner hair cells (IHC); BHK-2 group, middle of the cochlea", "value": "~ 20"},
      {"measurement": "mean IHC loss", "setting": "inner hair cells (IHC); BHK-2 group, near the apex", "value": 0, "unit": "%"},
      {"measurement": "mean IHC loss", "setting": "inner hair cells (IHC); BHK-2 group, near the base of the cochlea", "value": "~ 67%"},
      {"measurement": "mean number of SGN per section", "setting": "[6]; [7]", "value": 41.8, "unit": "SGN per section"},
      {"measurement": "mean number of SGN per section", "setting": "[6]; BHK-2 group, B group ~9", "value": 42.3, "unit": "SGN per section"},
      {"measurement": "protection against blast-induced SGN loss (in words)", "setting": "[6]; [9]", "value": "completely prevented; also recorded: significant protection"},
      {"measurement": "increase of SGN versus blast alone", "setting": "[6]; HK-2 treatment, 25 kHz region", "value": "~ 3.7 fold"}
    ]}
  ]
}
